Reference: patent US7598234B2, “Steroid derived antibiotics” (Brigham Young University, priority 1998, dated 2009)
In brackets after ≈: the same amount, converted by molar mass.

Assays:
[1] = tested on: Pseudomonas aeruginosa (ATCC 27853); test: MIC and MBC measurement with Pseudomonas aeruginosa (ATCC 27853); type: cell-based; conditions: Table 6; P. aureginosa (ATCC 27853)
Text: (§1) General: Microorganisms. Reference strains were purchased from the American Type Culture Collection (Rockville, Md.) or Bactrol disks from Difeo Laboratories (Detroit, Mich.). The following specific ATCC strains were used: 10798 Escherichia coli, 25922 Escherichia coli, 13883 Klebsiella pneumoniae, 27853 Pseudomonas aeruginosa, 14028 Salmonella typhimurium, 29212 Enterococcus faecalis, 25923 Staphylococcus aureus, 19615 Streptococcus pyogenes, and 90028 Candida albicans. Bacterial strains were maintained on Mueller-Hinton agar plates, and Candida albicans was maintained on Sabouraud Dextrose agar plates.
(§2) Tryptic soy broth (TSB) was made by dissolving 27.5 grams of tryptic soy broth without dextrose (DIFCO Laboratories) in 1 liter of deionized water and sterilizing at 121° C. for 15 minutes. Solid agar (TSA) plates were made by dissolving 6.4 grams of tryptic soy broth and 12 grams of agar (purified grade, Fischer Scientific) in 800 mL of deionized water and sterilizing at 121° C. for 20 minutes. Aliquots (20 mL) of the homogeneous solution were then poured in sterile plastic petri dishes (100×15 mm, Fisher Scientific). Solutions of compounds were made by dissolving the HCl salt of the respective compound into an appropriate amount of deionized and sterilized water followed by microfiltration.
(§3) Aliquots of 1 mL of the suspension were added to test tubes containing 1 mL TSB and incrementally varied concentrations of cholic acid derivatives and/or erythromycin or novobiocin. In the sensitization experiments, erythromycin or novobiocin were added 15 minutes later than the cholic acid derivatives. The samples were subjected to stationary incubation at 37° C. for 24 hours. Sample turbidity was determined by measuring absorption at 760 nm (HP 8453 UV-Visible Chemstation, Hewlett Packard). Additionally, an alliquot from each of the samples showing no measurable turbidity was subcultured on TSA plates (alliquots were diluted to provide fewer than 300 CFU). Colonies that grew on the subculture after overnight incubation were counted and the number of CFU/mL in the samples were calculated. The calculated values were compared to the number of CFU/mL in the original inoculum.

E. coli (ATCC 10798) [2] = test: MIC and MBC measurement with E. coli (ATCC 10798); type: cell-based, Escherichia coli
Text: as §1, §2, §3

E. coli (ATCC 10798) [3] = test: Sensitization to erythromycin (concentration lowering the MIC of erythromycin), E. coli (ATCC 10798); type: cell-based, Escherichia coli; conditions: for MIC: concentration required to lower the MIC of erythromycin from 70 μg/mL to 1 μg/mL / MBC (with erythromycin): Table 2, E. coli (ATCC 10798); for MBC (with erythromycin): erythromycin sensitization; for (a) Concentration required to lower the MIC of erythromycin from 70 to 1 μg/mL / (b) MBC with 1 μg/mL erythromycin / FIC values with erythromycin: Table 9, Escherichia coli (ATCC 10798)
Procedure: (§4) Alternatively, “fractional inhibitory concentration (FIC)” is also useful for determination of synergy between the compounds of the invention, or the compounds in combination with known antibiotics. FICs can be performed by checkerboard titrations of compounds in one dimension of a microtiter plate, and of antibiotics in the other dimension, for example. The FIC is calculated by looking at the impact of one antibiotic on the MIC of the other and vice versa. […] Preferably, an FIC of less than 0.5 is obtained for synergism. As used herein, FIC can be determined as follows:
as §3
(§5) Ability to permeabilize outer membrane: Compounds 11, 106, and 108-114 (FIG. 1) were tested for antibiotic activity. They were also tested for the ability to permeabilize the outer membrane of Gram-negative bacteria, causing sensitization to hydrophobic antibiotics that cannot cross the outer membrane. The permeabilization of the outer membrane was measured using erythromycin and novobiocin.
(§6) The MICs of erythromycin and novobiocin against E. coli (ATCC 10798) at 70 and >500 μg/mL were measured.

[4] = tested on: Pseudomonas aeruginosa (ATCC 27853); test: Sensitization to erythromycin, Pseudomonas aeruginosa (ATCC 27853); type: cell-based; conditions: Table 7; P. aureginosa (ATCC 27853)
Procedure: as §4
as §3, with “inoculum. […]” for “inoculum.”
To measure permeabilization, the FIC values for compounds 1, 2, 5, 106, 10, 112, 133, and 134 with erythromycin, novobiocin, and rifampicin were determined. Concentrations of 0.5, 1.0 or 3.0 μg/mL of these antibiotics were used, and the concentrations of the cholic acid derivatives required to inhibit bacterial growth of Gram-negative strains were determined.

E. coli (ATCC 10798) [5] = test: Sensitization to novobiocin (concentration lowering the MIC of novobiocin), E. coli (ATCC 10798); type: cell-based, Escherichia coli; conditions: for (d) Concentration required to lower the MIC of novobiocin from >500 to 1 μg/mL / FIC values with novobiocin: Table 9, Escherichia coli (ATCC 10798)
Procedure: as §4, §3, §5, §6

[6] = Table 9, Escherichia coli (ATCC 10798)

C[C@H](CCCN(C)Cc1ccccc1)[C@H]1CC[C@H]2[C@@H]3[C@H](OCCCCN)C[C@@H]4C[C@H](OCCCCN)CC[C@]4(C)[C@H]3C[C@H](OCCCCN)[C@]12C [Compound 3]
MIC [1]: 16 µg/mL (≈ 22.5 µM)
MIC (E. coli (ATCC 10798) [2]; Table 1, E. coli (ATCC 10798)): 6 µg/mL (≈ 8.44 µM)
MIC: concentration required to lower the MIC of erythromycin from 70 μg/mL to 1 μg/mL (E. coli (ATCC 10798) [3]): 1.5 µg/mL
MIC: concentration required to lower the MIC of erythromycin from 240 μg/mL to 5 μg/mL [4]: 6 µg/mL

C[C@H](CCCN(C)Cc1ccccc1)[C@H]1CC[C@H]2[C@@H]3[C@H](OCCN)C[C@@H]4C[C@@H](OCCN)CC[C@]4(C)[C@H]3C[C@H](OCCN)[C@]12C [Compound 8]
MIC [1]: 50 µg/mL (≈ 79.7 µM)
MIC (E. coli (ATCC 10798) [2]; Table 1, E. coli (ATCC 10798)): 46 µg/mL (≈ 73.4 µM)
MIC: concentration required to lower the MIC of erythromycin from 70 μg/mL to 1 μg/mL (E. coli (ATCC 10798) [3]): 10 µg/mL
MIC: concentration required to lower the MIC of erythromycin from 240 μg/mL to 5 μg/mL [4]: 40 µg/mL

CCCCCCCCOCCC[C@@H](C)[C@H]1CC[C@H]2[C@@H]3[C@H](OCCCN)C[C@@H]4C[C@H](OCCCN)CC[C@]4(C)[C@H]3C[C@H](OCCCN)[C@]12C [Compound 9]
MIC [1]: 8 µg/mL (≈ 11.8 µM)
MBC (E. coli (ATCC 10798) [2]; Table 1, E. coli (ATCC 10798)): 10 µg/mL (≈ 14.7 µM)
MIC (E. coli (ATCC 10798) [2]; Table 1, E. coli (ATCC 10798)): 3 µg/mL (≈ 4.42 µM)
MIC: concentration required to lower the MIC of erythromycin from 70 μg/mL to 1 μg/mL (E. coli (ATCC 10798) [3]): 3 µg/mL
MBC (with erythromycin) (E. coli (ATCC 10798) [3]): 3 µg/mL
MIC: concentration required to lower the MIC of erythromycin from 240 μg/mL to 5 μg/mL [4]: 5 µg/mL

CC(O)[C@H]1CC[C@H]2[C@@H]3[C@H](OCCCN)C[C@@H]4C[C@H](OCCCN)CC[C@]4(C)[C@H]3C[C@H](OCCCN)[C@]12C (stereo partly shown) [Compound 11]
MBC (E. coli (ATCC 10798) [2]; Table 1, E. coli (ATCC 10798)): >160 µg/mL
MIC (E. coli (ATCC 10798) [2]; Table 1, E. coli (ATCC 10798)): 140 µg/mL (≈ 267 µM)
MBC (E. coli (ATCC 10798) [2]; [6]): >160 µg/mL
MIC (E. coli (ATCC 10798) [2]; [6]): 140 µg/mL (≈ 267 µM)
MIC: concentration required to lower the MIC of erythromycin from 70 μg/mL to 1 μg/mL (E. coli (ATCC 10798) [3]): 40 µg/mL
MBC (with erythromycin) (E. coli (ATCC 10798) [3]): >160 µg/mL
(a) Concentration required to lower the MIC of erythromycin from 70 to 1 μg/mL (E. coli (ATCC 10798) [3]): 20 µg/mL
(b) MBC with 1 μg/mL erythromycin (E. coli (ATCC 10798) [3]): 180 µg/mL
FIC values with erythromycin (E. coli (ATCC 10798) [3]): 0.16
MIC: concentration required to lower the MIC of novobiocin from >500 μg/mL to 1 μg/mL (E. coli (ATCC 10798) [5]; Table 3, E. coli (ATCC 10798)): 40 µg/mL
MBC (with novobiocin) (E. coli (ATCC 10798) [5]; Table 3, E. coli (ATCC 10798), novobiocin sensitization): 140 µg/mL
(d) Concentration required to lower the MIC of novobiocin from >500 to 1 μg/mL (E. coli (ATCC 10798) [5]): 40 µg/mL
FIC values with novobiocin (E. coli (ATCC 10798) [5]): 0.29

C[C@H](CCCOCCC[C@@H](C)[C@H]1CC[C@H]2[C@@H]3[C@H](OCCCN)C[C@@H]4C[C@H](OCCCN)CC[C@]4(C)[C@H]3C[C@H](OCCCN)[C@]12C)[C@H]1CC[C@H]2[C@@H]3[C@H](OCCCN)C[C@@H]4C[C@H](OCCCN)CC[C@]4(C)[C@H]3C[C@H](OCCCN)[C@]12C [Compound 12]
MBC (E. coli (ATCC 10798) [2]; Table 1, E. coli (ATCC 10798)): 4 µg/mL (≈ 3.59 µM)
MIC (E. coli (ATCC 10798) [2]; Table 1, E. coli (ATCC 10798)): 4 µg/mL (≈ 3.59 µM)
MIC: concentration required to lower the MIC of erythromycin from 70 μg/mL to 1 μg/mL (E. coli (ATCC 10798) [3]): 1.5 µg/mL
MBC (with erythromycin) (E. coli (ATCC 10798) [3]): 2.5 µg/mL
MIC: concentration required to lower the MIC of novobiocin from >500 μg/mL to 1 μg/mL (E. coli (ATCC 10798) [5]; Table 3, E. coli (ATCC 10798)): 2.5 µg/mL

C[C@H](CO)[C@H]1CC[C@H]2[C@@H]3[C@H](OCCCN)C[C@@H]4C[C@H](OCCCN)CC[C@]4(C)[C@H]3C[C@H](OCCCN)[C@]12C [Compound 108]
FIC values with erythromycin (E. coli (ATCC 10798) [3]): 0.071
FIC values with novobiocin (E. coli (ATCC 10798) [5]): 0.17

C[C@H](CCO)[C@H]1CC[C@H]2[C@@H]3[C@H](OCCCN)C[C@@H]4C[C@H](OCCCN)CC[C@]4(C)[C@H]3C[C@H](OCCCN)[C@]12C [Compound 109]
FIC values with erythromycin (E. coli (ATCC 10798) [3]): 0.071
FIC values with novobiocin (E. coli (ATCC 10798) [5]): 0.22

C[C@H](CCCO)[C@H]1CC[C@H]2[C@@H]3[C@H](OCCCN)C[C@@H]4C[C@H](OCCCN)CC[C@]4(C)[C@H]3C[C@H](OCCCN)[C@]12C [Compound 110]
MBC (E. coli (ATCC 10798) [2]; [6]): 60 µg/mL (≈ 106 µM)
MIC (E. coli (ATCC 10798) [2]; [6]): 36 µg/mL (≈ 63.6 µM)
(a) Concentration required to lower the MIC of erythromycin from 70 to 1 μg/mL (E. coli (ATCC 10798) [3]): 2.0 µg/mL
(b) MBC with 1 μg/mL erythromycin (E. coli (ATCC 10798) [3]): 50 µg/mL
FIC values with erythromycin (E. coli (ATCC 10798) [3]): 0.070
(d) Concentration required to lower the MIC of novobiocin from >500 to 1 μg/mL (E. coli (ATCC 10798) [5]): 4.0 µg/mL
FIC values with novobiocin (E. coli (ATCC 10798) [5]): 0.11
